# Laboratory results taken from the supplement of paper PMC10307832.
# How the values were obtained:
# Experiment in all cases: relative viability (nuclei count vs DMSO), 5 days (fraction); higher = more cells survive
# [1] = compound: C1=CC2=C(C=C(C(=C2N=C1)O)N=NC3=CC4=C(C=C3)C=C(C=C4)S(=O)(=O)O)S(=O)(=O)O + O=C(c1cc(Cc2n[nH]c(=O)c3ccccc23)ccc1F)N1CCN(C(=O)C2CC2)CC1 [Olaparib] (partner 8 µM)
# In short: (§1)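 Five library-drug doses in √10 steps were combined with a fixed anchor-drug dose, or a single drug was given alone, by pin tool to lung cancer cell lines in 1536-well plates the day after seeding. Nuclei were stained and counted after 5 days. Relative viability is the nuclei count in treated wells over that in vehicle wells, taken as the median of duplicate plates.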
# [2] = compound: C1=CC2=C(C=C(C(=C2N=C1)O)N=NC3=CC4=C(C=C3)C=C(C=C4)S(=O)(=O)O)S(=O)(=O)O + CS(=O)(=O)CCNCc1ccc(-c2ccc3ncnc(Nc4ccc(OCc5cccc(F)c5)c(Cl)c4)c3c2)o1 [Lapatinib] (partner 2 µM)
# In short: as §1
# [3] = compound: C1=CC2=C(C=C(C(=C2N=C1)O)N=NC3=CC4=C(C=C3)C=C(C=C4)S(=O)(=O)O)S(=O)(=O)O + Cc1cc(Nc2cc(N3CCN(C)CC3)nc(Sc3ccc(NC(=O)C4CC4)cc3)n2)n[nH]1 [Tozasertib] (partner 0.1 µM)
# In short: as §1
# [4] = compound: C1=CC2=C(C=C(C(=C2N=C1)O)N=NC3=CC4=C(C=C3)C=C(C=C4)S(=O)(=O)O)S(=O)(=O)O + CC(C)C[C@H](NC(=O)[C@H](Cc1ccccc1)NC(=O)c1cnccn1)B(O)O [Bortezomib] (partner 0.002 µM)
# In short: as §1
Cell Line,relative viability ([1]; first compound 0.08 µM),relative viability ([1]; first compound 0.253 µM),relative viability ([1]; first compound 0.8 µM),relative viability ([1]; first compound 2.53 µM),relative viability ([1]; first compound 8 µM),relative viability ([2]; first compound 0.08 µM),relative viability ([2]; first compound 0.253 µM),relative viability ([2]; first compound 0.8 µM),relative viability ([2]; first compound 2.53 µM),relative viability ([2]; first compound 8 µM),relative viability ([3]; first compound 0.08 µM),relative viability ([3]; first compound 0.253 µM),relative viability ([3]; first compound 0.8 µM),relative viability ([3]; first compound 2.53 µM),relative viability ([3]; first compound 8 µM),relative viability ([4]; first compound 0.08 µM),relative viability ([4]; first compound 0.253 µM),relative viability ([4]; first compound 0.8 µM),relative viability ([4]; first compound 2.53 µM),relative viability ([4]; first compound 8 µM)
EMC-BAC-2,0.504,0.485,0.493,0.489,0.465,0.826,0.881,0.877,0.927,0.74,0.303,0.29,0.303,0.337,0.302,1.1,1.06,1.06,1.14,1
LU99A,0.264,0.282,0.286,0.257,0.243,0.934,0.974,0.949,0.972,1.14,0.289,0.267,0.272,0.323,0.273,1.27,1.13,1.04,0.986,1.29
ABC-1,0.634,0.762,0.754,0.684,0.916,1.25,0.989,1.08,1.18,1.02,0.155,0.199,0.176,0.167,0.132,0.277,0.393,0.281,0.246,0.226
NCI-H2347,0.569,0.538,0.618,0.569,0.8,1.05,0.921,0.839,0.882,0.824,0.59,0.57,0.52,0.741,0.573,1.23,0.962,0.982,0.98,0.955
NCI-H1993,1.03,0.931,1.18,1.09,1.1,0.82,0.71,0.801,0.723,0.589,0.576,0.576,0.581,0.56,0.548,1.08,1.07,1.28,1.3,0.977
NCI-H322M,0.733,0.705,0.691,0.78,0.834,0.627,0.639,0.528,0.613,0.716,0.541,0.468,0.433,0.496,0.47,1.26,1.11,1.22,1.32,1.28
NCI-H838,0.781,0.739,0.743,0.777,0.77,1.29,0.926,0.934,0.926,1.06,0.238,0.214,0.272,0.285,0.266,0.753,0.909,0.674,0.633,0.764
HARA,0.959,0.797,0.697,0.741,0.764,0.836,0.611,0.681,0.869,0.778,0.105,0.107,0.102,0.111,0.117,1.14,1.08,1.03,1.13,1.01
NCI-H2087,0.688,0.651,0.622,0.563,0.601,1.16,0.981,1.02,1.03,1.02,0.237,0.258,0.238,0.237,0.267,0.888,0.902,0.856,0.669,0.904
NCI-H1437,0.617,0.611,0.655,0.638,0.613,0.896,0.791,0.781,0.811,0.748,0.421,0.392,0.407,0.408,0.287,0.578,0.509,0.483,0.414,0.4
NCI-H650,0.458,0.404,0.386,0.384,0.402,0.91,0.786,0.838,0.86,0.525,0.703,0.671,0.749,0.737,0.79,0.782,0.748,0.94,0.758,0.614
COR-L23,0.308,0.344,0.35,0.394,0.296,1.3,0.971,0.92,1,1.15,0.22,0.173,0.247,0.197,0.233,0.982,0.953,1.06,0.962,1.03
COR-L 105,0.676,0.62,0.732,0.701,0.83,0.401,0.394,0.378,0.377,0.358,0.355,0.37,0.367,0.361,0.378,0.806,0.662,0.83,0.87,0.757
201T,0.846,0.82,0.871,0.852,0.832,0.975,1.04,1.01,0.997,1.02,1.03,0.901,0.987,0.967,0.934,1.09,1.1,1.07,1.11,1
HCC-44,1.02,0.945,0.956,0.982,0.933,1.08,0.975,0.96,1.05,1.09,–,0.853,0.999,1.03,0.873,0.903,0.835,0.931,0.905,0.9
NCI-H596,0.7,0.798,0.639,0.746,0.747,1.11,1.02,0.977,1.01,1.01,1.16,0.926,0.834,0.818,1.04,1.43,1.16,0.974,1.02,0.769

Cell Line,relative viability ([1]; first compound 0.08 µM),relative viability ([1]; first compound 0.253 µM),relative viability ([1]; first compound 0.8 µM),relative viability ([1]; first compound 2.53 µM),relative viability ([1]; first compound 8 µM),relative viability ([2]; first compound 0.08 µM),relative viability ([2]; first compound 0.253 µM),relative viability ([2]; first compound 0.8 µM),relative viability ([2]; first compound 2.53 µM),relative viability ([2]; first compound 8 µM),relative viability ([3]; first compound 0.08 µM),relative viability ([3]; first compound 0.253 µM),relative viability ([3]; first compound 0.8 µM),relative viability ([3]; first compound 2.53 µM),relative viability ([3]; first compound 8 µM),relative viability ([4]; first compound 0.08 µM),relative viability ([4]; first compound 0.253 µM),relative viability ([4]; first compound 0.8 µM),relative viability ([4]; first compound 2.53 µM),relative viability ([4]; first compound 8 µM)
H3255,0.6,0.571,0.551,0.638,0.587,0.283,0.236,0.255,0.246,0.237,0.59,0.705,0.655,0.604,0.864,0.719,0.685,0.802,0.875,0.741
NCI-H647,0.516,0.48,0.522,0.65,0.545,1.64,0.828,0.974,0.998,0.904,0.49,0.279,0.308,0.231,0.267,1.2,1.08,0.97,0.953,1.19
NCI-H2023,0.509,0.443,0.442,0.528,0.416,0.825,0.773,0.899,0.95,0.818,0.398,0.311,0.411,0.347,0.36,0.945,0.945,1.01,1.15,0.978
NCI-H23,0.27,0.339,0.343,0.324,0.359,1.31,1.02,1.03,0.984,1.18,0.375,0.323,0.417,0.388,0.401,1.06,0.82,1.08,1.06,0.897
NCI-H520,0.327,0.342,0.337,0.301,0.387,1.1,0.791,0.833,0.798,0.848,0.428,0.454,0.439,0.369,0.42,0.777,0.598,0.619,0.551,0.459
NCI-H460,0.537,0.356,0.444,0.43,0.425,1.53,1.01,1.05,1.13,0.965,0.627,0.381,0.559,0.543,0.4,1.39,1.04,0.99,1.19,1.09
EKVX,1.02,0.77,0.904,0.822,0.955,0.215,0.215,0.172,0.208,0.219,0.458,0.44,0.34,0.446,0.389,1.15,0.781,0.987,1.11,1.01
EPLC-272H,0.855,0.683,0.722,1,0.808,1,0.947,0.895,1,0.935,0.351,0.365,0.203,0.273,0.325,0.895,0.917,0.935,0.924,0.902
NCI-H2126,0.957,0.901,0.904,0.893,0.874,0.808,0.723,0.723,0.777,0.759,0.911,0.824,0.843,0.938,0.792,1.14,1.12,1.11,1.08,1.11
LXF-289,1.26,1,0.973,1.05,1.03,0.934,0.889,0.897,0.955,0.903,0.234,0.159,0.179,0.19,0.228,0.95,0.96,0.986,0.986,0.945
NCI-H2009,0.656,0.663,0.681,0.743,0.711,0.898,0.889,0.871,0.884,0.836,0.766,0.756,0.741,0.842,0.562,0.909,0.921,0.965,0.968,0.916
NCI-H2405,0.85,0.888,0.816,0.898,0.845,1.04,1.07,0.979,1.02,1,0.894,0.811,0.782,0.82,0.711,1.04,0.952,0.979,0.935,0.4
NCI-H1755,0.913,0.864,0.831,0.964,0.874,1.06,1.04,1.01,1.05,1.05,0.608,0.539,0.555,0.615,0.577,1.08,0.962,0.934,0.95,0.958
HCC-78,0.971,0.908,0.733,0.801,0.811,0.763,0.625,0.702,0.922,0.192,0.41,0.345,0.469,0.488,0.349,0.513,0.469,0.475,0.417,0.526
LOU-NH91,1.01,0.907,0.927,0.881,0.919,0.868,0.79,0.755,0.781,0.781,0.77,0.667,0.681,0.748,0.734,0.504,0.477,0.51,0.498,0.496
NCI-H3122,0.643,0.623,0.561,0.644,0.584,0.99,0.982,1.04,0.947,1.01,0.371,0.37,0.405,0.514,0.378,0.975,0.899,1.02,0.996,0.987
